Experimental findings from patent US9346815B2, “5-chloro-2-difluoromethoxyphenyl pyrazolopyrimidine compounds, compositions and methods of use thereof” (Genentech, Inc., priority 2014, dated 2016) are described below.

The subject of data set [1] is JAK1-dependent STAT6 phosphorylation downstream of IL-13 stimulation in BEAS-2B human bronchial epithelial cells. Put plainly: JAK1 pathway assay in BEAS-2B cells (IL-13-pSTAT6, MSD). Type of data set: cell-based. The note with it: read-out: IL13-pSTAT6 EC50 (uM)_BEAS-2B. The essentials:
(§1)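 BEAS-2B: 1 h, complete growth medium, 100,000 cells/well. TF-1: 30 min, serum-free OptiMEM after overnight GM-CSF starvation, 300,000 cells/well. EC50 reported.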

Data set [2] deals with JAK1-dependent STAT6 phosphorylation downstream of IL-13 stimulation in TF-1 human erythroleukemia cells. The data set can be described thus: JAK1 pathway assay in TF-1 cells (IL-13-pSTAT6, MSD). Type of data set: cell-based. To be noted: Homo sapiens, TF-1, TF-1 cells, read-out: IL13-pSTAT6 EC50_TF-1. The essentials: as §1
The target of data set [3] is isolated recombinant JAK1 kinase domain (Homo sapiens (Human), UniProt P23458). The data set can be described thus: JAK1 enzyme assay (Caliper LabChip, peptide phosphorylation). The class given is biochemical. The note with it: isolated recombinant JAK1 kinase domain, 25 μM ATP.
Chain of isolated recombinant JAK1 kinase domain (P23458 875-1153): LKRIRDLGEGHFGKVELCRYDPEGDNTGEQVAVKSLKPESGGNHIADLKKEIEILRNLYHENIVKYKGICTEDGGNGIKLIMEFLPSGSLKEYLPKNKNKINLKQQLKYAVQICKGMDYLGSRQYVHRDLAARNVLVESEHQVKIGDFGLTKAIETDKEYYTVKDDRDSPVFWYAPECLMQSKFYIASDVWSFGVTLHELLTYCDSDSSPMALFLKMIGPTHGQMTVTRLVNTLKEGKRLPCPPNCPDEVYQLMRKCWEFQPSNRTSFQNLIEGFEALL
Data set [4] can be described thus: Clearance assay: mouse intravenous (IV) clearance. The class given is in vivo. The note with it: female BALB/c mice; for IV Mouse CL, % of liver blood flow: single IV dose of 1 mg/kg, clearance as % of mouse liver blood flow; for clearance: mouse, plasma, single IV dose of 1 mg/kg via the tail vein, read-out: IV Mouse CL. From the text:
In certain instances high systemic clearance of a drug substance may be of benefit. For example, in the treatment of pulmonary diseases it may be beneficial to have high drug concentrations in the lung, with lower concentrations in the bloodstream or peripheral organs. In such cases, it may be advantageous to administer a drug substance with high systemic clearance via the inhaled delivery route. This approach may maximize pharmacologic activity of the drug substance in the lung while minimizing the possibility of on-target toxicity elsewhere in the body. The functional groups appended to the 5-chloro-2-difluoromethoxyphenyl pyrazolopyrimidine scaffold affect systemic clearance.
Female BALB/c mice were obtained from Charles River Labs (Hollister, Calif. USA). Twelve animals were given a single IV dose of 1 mg/kg of compounds via the tail vein. A representative dose solution was prepared as follows: the compound was dissolved in a mixture of 5% dimethylsulfoxide (DMSO), 35% polyethylene glycol (PEG 400), and 60% water (v/v/v), respectively, and administered at a dosing volume of 5 mL/kg. Mice weighed approximately 20-25 g at the start of the study. After intravenous administration of compounds, each animal was bled twice via retro-orbital and cardiac puncture. PK time points were collected at 2 min, 5 min, 15 min, 30 min, 1 hr, 2 hr, 4 hr, and 8 hr post-dose. Plasma samples were stored at approximately −80° C. until thawed for LC-MS/MS analysis. PK data analysis was performed on mean plasma concentration-time data and PK parameters were determined by non compartmental methods using WinNonlin® Enterprise, version 5.2.1 (Pharsight Corporation; Mountain View, Calif.).

Data set [5] addresses isolated recombinant JAK2 kinase domain (Homo sapiens (Human), UniProt O60674). Put plainly: JAK2 enzyme assay (Caliper LabChip, peptide phosphorylation). To be noted: 25 μM ATP. The class given is biochemical.

Chain of isolated recombinant JAK2 kinase domain (O60674 849-1124): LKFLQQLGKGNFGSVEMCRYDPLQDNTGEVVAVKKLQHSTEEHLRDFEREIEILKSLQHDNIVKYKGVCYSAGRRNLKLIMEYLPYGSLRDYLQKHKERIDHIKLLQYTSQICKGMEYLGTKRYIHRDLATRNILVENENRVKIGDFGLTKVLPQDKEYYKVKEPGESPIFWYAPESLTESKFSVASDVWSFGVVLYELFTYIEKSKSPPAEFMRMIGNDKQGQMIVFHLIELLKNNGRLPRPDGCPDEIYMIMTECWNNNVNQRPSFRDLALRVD

For `CCN1CCN(C(=O)Cn2cc(NC(=O)c3cnn4cccnc34)c(-c3cc(Cl)ccc3OC(F)F)n2)CC1` [Example 233, Pyrazolo[1,5-a]pyrimidine-3-carboxylic acid {3-(5-chloro-2-difluoromethoxy-phenyl)-1-[2-(4-ethyl-piperazin-1-yl)-2-oxo-ethyl]-1H-pyrazol-4-yl}-amide], the EC50 is 0.0181 µM in data set [1] and 10 nM in data set [2]. Also, the inhibitory constant (Ki) stood at 0.78 nM in data set [3] and 1.43 nM in data set [5]. Besides, in data set [4], the “IV Mouse CL, % of liver blood flow” value is more than 100%. In data set [4], the clearance came to 153 mL/min/kg.

As for `O=C(Nc1cn(CC(=O)N2CC=CCC2)nc1-c1cc(Cl)ccc1OC(F)F)c1cnn2cccnc12` [Example 284, N-[3-[5-chloro-2-(difluoromethoxy)phenyl]-1-[2-(3,6-dihydro-2H-pyridin-1-yl)-2-oxo-ethyl]pyrazol-4-yl]pyrazolo[1,5-a]pyrimidine-3-carboxamide], the results for the EC50 in data set [1] and in data set [2] were 0.0125 µM and 1.6 nM, respectively. The Ki in data set [3] is 0.15 nM; in data set [5] it was 0.37 nM. In data set [4], the “IV Mouse CL, % of liver blood flow” value is reported as more than 100%. For the same molecule, the clearance in data set [4] stood at 219 mL/min/kg.

Turning to `COCCNCCn1cc(NC(=O)c2cnn3cccnc23)c(-c2cc(Cl)ccc2OC(F)F)n1` [Example 294, N-[3-[5-chloro-2-(difluoromethoxy)phenyl]-1-[2-(2-methoxyethylamino)ethyl]pyrazol-4-yl]pyrazolo[1,5-a]pyrimidine-3-carboxamide], the values for the EC50 in data set [1] and in data set [2] were 0.0367 µM and 6.2 nM, respectively. Moreover, the results for the Ki in data set [3] and in data set [5] were 0.89 nM and 0.57 nM, respectively. The “IV Mouse CL, % of liver blood flow” value in data set [4] was more than 100%. The clearance in data set [4] was determined as 95 mL/min/kg.

By Ki is commonly meant the dissociation constant of the complex between target and ligand, obtained from inhibition or displacement.
